This is an account of results in patent US20260315446A1, “ANTIFUNGAL COMPOUNDS AND USES THEREOF” (priority 2023, published 2026).

The target of series [1] is T1, C. albicans FKBP12 and CnA-CnB-calmodulin complex (UniProt C4YFI3+C4YS24+P28870).
T1 construct: N-tagged CnA 54-609, untagged CnB and calmodulin co-expressed in Tni insect cells
The series is described as follows: Biolayer interferometry ternary complex formation. The series is classed as binding, Candida albicans. The settings on record: BLI, 10 μM compound, steady-state and kinetic analyses. On the procedure:
To better understand the relationship between structure and activity of these analogs, FK506 analog, JH-FK-02 was tested, and one FK520 analog, JH-FK-05 was tested, for their binding dynamics to CnA and CnB by biolayer interferometry (BLI). Purified and biotinylated (Avi-tagged) FKBP12 from A. fumigatus and C. albicans were loaded onto streptavidin sensors in the presence of an inhibitor, followed by titration of the respective CnA-CnB-calmodulin complex, also in the presence of an inhibitor. Data were double referenced using parallel reference sensors and sample blanks.
Biolayer interferometry (BLI) experiments were completed using either A. fumigatus or C. albicans FKBP12 and CnA/CnB/calmodulin complexes, along with compounds FK506, APX879, FK520, JH-FK-02, and JH-FK-05. Initial buffer (25 mM Tris, 200 mM NaCl, and 1 mM TCEP [pH 8.0]) was prepared using 1 M Tris-HCl (pH 8.0, catalog no. T1080; Teknova), 5 M sodium chloride (catalog no. S0251; Teknova), TCEP (catalog no. M115; Soltec Ventures, Inc.), and was readjusted to pH 8 before sterile filtering. […]
Data were processed and analyzed using ForteBio Data Analysis software version 11.1.3.10. […] Kinetics data were analyzed using the “association and dissociation curve fitting” option utilizing a 1:1 model. […]
For orientation: BLI is a label-free optical method that tracks binding on a fibre tip over time.

Series [2] concerns germinal center (GC) B cells. Kind of series: In vivo immunosuppression, germinal center B cells (Example 1). The settings on record: daily i.p., FK506 5 mg/kg or JH-FK-05 60 mg/kg; day 7. More on the design: species or system mouse (C57BL/6). How it is done:
(§1) Based on the in vitro evidence of reduced immunosuppressive activity of JH-FK-05, it was hypothesized that this reduction would translate into reduced immunosuppression in an in vivo model. The murine model for immunosuppression measures the T cell-dependent proliferation of two immune cell subtypes in response to immunization with an antigen. Animals were treated daily via intraperitoneal (i.p.) injection with vehicle, 5 mg/kg FK506, or 60 mg/kg JH-FK-05, beginning on day −1 and ending on day 7. […] On day 0, animals were immunized with NP-OVA to stimulate T cell-dependent signaling that would result in proliferation of T follicular helper (Tfh) cells and germinal center (GC) B cells. Animals were sacrificed on day 7, and the proportions of Tfh and GC B cells in the lymph nodes were measured. […]
(§2) Groups of 6 female C57BL/6 mice (Jackson Laboratory) were treated daily by intraperitoneal (i.p.) injection with about 100 μL vehicle, 5 mg/kg FK506, or 60 mg/kg JH-FK-05 beginning on day −1. […] Mice were treated and monitored daily until they were sacrificed on day 7. Draining lymph nodes were harvested on day 7, and the populations of T follicular helper cells and GC B cells were analyzed by flow cytometry. Tfh and GC B cells were measured from T Cell Receptor β (TCRβ^+) CD4^+CD44^hi cells and TCRβ^−CD19^+ cells, respectively.

For series [3], the system named is T follicular helper (Tfh) cells. The series is described as follows: In vivo immunosuppression, T follicular helper cells (Example 1). More on the design: species or system mouse (C57BL/6). The settings on record: daily i.p., FK506 5 mg/kg or JH-FK-05 60 mg/kg; day 7. On the procedure: as §1, §2

T1 sequence (P28870 whole entry): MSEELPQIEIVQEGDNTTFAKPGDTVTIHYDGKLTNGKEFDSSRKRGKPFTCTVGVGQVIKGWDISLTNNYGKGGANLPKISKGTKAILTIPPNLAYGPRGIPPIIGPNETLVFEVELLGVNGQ
T1 sequence (C4YFI3 54-609): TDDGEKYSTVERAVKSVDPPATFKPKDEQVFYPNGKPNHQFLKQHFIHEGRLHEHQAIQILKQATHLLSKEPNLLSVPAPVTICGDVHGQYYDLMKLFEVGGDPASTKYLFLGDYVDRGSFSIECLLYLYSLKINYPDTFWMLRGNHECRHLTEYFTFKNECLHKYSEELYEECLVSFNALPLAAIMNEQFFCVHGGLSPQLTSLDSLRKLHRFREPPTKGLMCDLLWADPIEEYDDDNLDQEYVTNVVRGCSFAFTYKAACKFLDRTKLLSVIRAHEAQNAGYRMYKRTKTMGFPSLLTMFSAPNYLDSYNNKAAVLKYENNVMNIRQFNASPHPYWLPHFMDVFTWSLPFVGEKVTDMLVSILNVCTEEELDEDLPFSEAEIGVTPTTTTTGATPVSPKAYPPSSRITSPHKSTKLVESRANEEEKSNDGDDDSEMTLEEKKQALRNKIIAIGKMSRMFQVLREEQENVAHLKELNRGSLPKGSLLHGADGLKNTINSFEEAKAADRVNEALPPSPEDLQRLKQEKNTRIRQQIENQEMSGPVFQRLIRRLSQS
T1 sequence (C4YS24 1-173): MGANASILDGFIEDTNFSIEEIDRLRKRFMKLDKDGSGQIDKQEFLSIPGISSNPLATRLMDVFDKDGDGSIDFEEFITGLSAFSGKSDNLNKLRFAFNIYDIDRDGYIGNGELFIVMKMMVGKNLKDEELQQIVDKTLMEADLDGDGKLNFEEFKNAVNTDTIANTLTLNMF
T1 sequence (P23286 whole entry partner): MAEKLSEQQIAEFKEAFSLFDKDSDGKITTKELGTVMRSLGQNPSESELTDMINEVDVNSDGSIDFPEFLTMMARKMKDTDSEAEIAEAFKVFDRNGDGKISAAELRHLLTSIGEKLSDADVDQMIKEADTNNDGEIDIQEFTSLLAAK

Take `C=CC[C@@H]1/C=C(\C)C[C@H](C)C[C@H](OC)[C@H]2O[C@@](O)(C(=O)C(=O)N3CCCC[C@H]3C(=O)O[C@H](/C(C)=C/[C@@H]3CC[C@@H](O)[C@H](OC)C3)[C@H](C)[C@@H](O)C/C1=N/NC(=O)CC)[C@H](C)C[C@@H]2OC` [JH-FK-02]: the “affinity of target complex formation in presence of analog” value in series [1] is reported as “affinities similar to those of the parent compounds”.

Turning to `C=CCC1C=C(C)CC(C)CC(OC)C2OC(O)(C(=O)C(=O)N3CCCCC3C(=O)OC(C(C)=CC3CCC(O)C(OC)C3)C(C)C(O)CC1=O)C(C)CC2OC` (stereo not drawn) [FK506, reference compound], the “proliferation/presence of GC B cells” value in series [2] is “significantly reduced the proliferation”. In series [3], the “proliferation/presence of Tfh cells” value is reported as “significantly reduced the proliferation”.

For `CC[C@@H]1/C=C(\C)C[C@H](C)C[C@H](OC)[C@H]2O[C@@](O)(C(=O)C(=O)N3CCCC[C@H]3C(=O)O[C@H](/C(C)=C/[C@@H]3CC[C@@H](O)[C@H](OC)C3)[C@H](C)[C@@H](O)C/C1=N/NC(C)=O)[C@H](C)C[C@@H]2OC` [JH-FK-05], the “proliferation/presence of GC B cells” value in series [2] was “did not reduce the presence of either cell type and was statistically indistinguishable from the vehicle treatment”. Also, the “affinity of target complex formation in presence of analog” value in series [1] is “affinities similar to those of the parent compounds”. The “proliferation/presence of Tfh cells” value in series [3] was “did not reduce the presence of either cell type and was statistically indistinguishable from the vehicle treatment”.
